Test results published in patent publication US6632816B1, “Aromatic derivatives as HIV aspartyl protease inhibitors” (Pharmacor Inc., priority 2002, dated 2003).

Molecular target: HIV protease (Human immunodeficiency virus type 1 group M subtype B, UniProt P04585)
Assay: biochemical
Excerpt: Enzymatic Assay for Determining the Inhibition Constant (Ki) of Synthetic Compounds Targeting the HIV Protease
This is a fluorometric assay based on the cleavage by protease of a substrate carrying a donor group (EDANS) and an acceptor group (DABCYL) on each side of the cleavage site, interacting together through fluorescence resonance energy transfer (FRET) as described by Matayoshi et al. (Science 247:954-954, 1990).
After calculation of Vo and Vi, the inhibition constant (Ki) of the compound is determined using the equation of Henderson: [formula]
where Vo=the enzyme's initial velocity
Vi=the enzyme velocity in the presence of the inhibitory compound,
[I]=inhibitor concentration, [S]=substrate concentration,
Km=Michaelis-Menten constant and Kiapp=apparent Ki
Graphs are traced and the Ki determined using GraphPad Prism software v.

With `CC(C)CN([C@H](CO)CCCNC(=O)[C@H](Cc1cccc2ccccc12)NC(=O)C1CCCC1)S(=O)(=O)c1ccc(N)cc1` [Example 23, (1S,4S)-Cyclopentanecarboxylic Acid (1-{4-[(4-Amino-benzenesulfonyl)-isobutyl-amino]-5-hydroxy-pentylcarbamoyl}-2-naphthalen-1-yl-ethyl)-amide] as the compound, how does the Ki read?
The Ki was 2 nM.

With `CC(C)CN([C@H](CO)CCCCNC(=O)[C@@H](NC(=O)c1ccccn1)C(c1ccccc1)c1ccccc1)S(=O)(=O)c1ccc(N)cc1` [Example 96, (1S,5S)-Pyridine-2-carboxylic Acid (1-{5-[(4-Amino-benzenesulfonyl)-isobutyl-amino]-6-hydroxy-hexylcarbamoyl}-2,2-diphenyl-ethyl)-amide] as the compound, how does the Ki read?
Its Ki is less than 3.8 nM.

`CC(C)CN[C@@H](Cc1ccc2ccccc2c1)C(=O)NCCCC[C@@H](CO)N(CC(C)C)S(=O)(=O)c1ccc(N)cc1` [Example 63, (2S,5S)-N-{5-[(4-Amino-benzenesulfonyl)-isobutyl-amino]-6-hydroxy-hexyl}-2-isobutylamino-3-naphthalen-2-yl-propionamide] was tested. Which Ki did it give?
The Ki was 3.9 nM.

For `COC(=O)N[C@@H](Cc1ccccc1-c1ccc(OC)cc1)C(=O)NCCC[C@@H](CO)N(CC(C)C)S(=O)(=O)c1ccc(N)cc1` [Example 6, (1S,4S)-[1-{4-[(4-Amino-benzenesulfonyl)-isobutyl-amino]-5-hydroxy-pentylcarbamoyl}-2-(4′-methoxy-biphenyl-2-yl)-ethyl]-carbamic Acid Methyl Ester], which Ki is on record?
Its Ki is 13 nM.

Which Ki does the source give for `CC(C)CN([C@H](CO)CCCCNC(=O)[C@H](Cc1ccc2ccccc2c1)NC(=O)C1CCCCC1)S(=O)(=O)c1ccc(F)c(N)c1` [Example 88, (1S,5S)-Cyclohexanecarboxylic Acid (1-{5-[(3-Amino-4-fluoro-benzenesulfonyl)-isobutyl-amino]-6-hydroxy-hexylcarbamoyl}-2-naphthalen-2-yl-ethyl)-amide] here?
Its Ki is less than 3.8 nM.

Which Ki does the source give for `CC(C)CN([C@H](CO)CCCCNC(=O)[C@H](Cc1ccc2ccccc2c1)NC(=O)C1CCCCC1)S(=O)(=O)c1ccc(N)cc1` [Example 42, (1S,5S)-Cyclohexanecarboxylic Acid (1-{5-[(4-Amino-benzenesulfonyl)-isobutyl-amino]-6-hydroxy-hexylcarbamoyl}-2-naphthalen-2-yl-ethyl)-amide] here?
Its Ki is 1.2 nM.

With `CC(C)CN([C@H](CO)CCCCNC(=O)[C@H](Cc1ccc2ccccc2c1)NC(=O)C1CCCC1)S(=O)(=O)c1ccc(N)cc1` [Example 60, (1S,5S)-Cyclopentanecarboxylic Acid (1-{5-[(4-Amino-benzenesulfonyl)-isobutyl-amino]-6-hydroxy-hexylcarbamoyl}-2-naphthalen-2-yl-ethyl)-amide] as the compound, how does the Ki read?
Its Ki is 1.9 nM.

`CC(C)CN([C@H](CO)CCCCNC(=O)[C@@H](NC(=O)c1ccc([N+](=O)[O-])c(O)c1)C(c1ccccc1)c1ccccc1)S(=O)(=O)c1ccc(N)cc1` [Example 107, (1S,5S)-N-(1-{5-[(4-Amino-benzenesulfonyl)-isobutyl-amino]-6-hydroxy-hexylcarbamoyl}-2,2-diphenyl-ethyl)-3-hydroxy-4-nitro-benzamide] was tested. Which Ki did it give?
The Ki was less than 3.8 nM.

For `CC(C)CN([C@H](CO)CCCCNC(=O)[C@@H](N)C(c1ccccc1)c1ccccc1)S(=O)(=O)c1ccc(N)cc1` [Example 72, (2S,5S)-2-Amino-N-{5-[(4-amino-benzenesulfonyl)-isobutyl-amino]-6-hydroxy-hexyl}-3,3-diphenyl-propionamide], which Ki is on record?
Its Ki is 7.5 nM.

Which Ki does the source give for `CC(C)CN([C@H](CO)CCCCNC(=O)[C@H](Cc1ccc2ccccc2c1)NC(=O)N(C)C)S(=O)(=O)c1ccc(F)c(N)c1` [Example 86, (2S,5S)-N-{5-[(3-Amino-4-fluoro-benzenesulfonyl)-isobutyl-amino]-6-hydroxy-hexyl}-2-(3,3-dimethyl-ureido)-3-naphthalen-2-yl-propionamide] here?
Its Ki is less than 3.8 nM.

`CCN[C@@H](Cc1cccc2ccccc12)C(=O)NCCC[C@@H](CO)N(CC(C)C)S(=O)(=O)c1ccc(N)cc1` [Example 26, (2S,4S)-N-{4-[(4-Amino-benzenesulfonyl)-isobutyl-amino]-5-hydroxy-pentyl}-2-ethylamino-3-naphthalen-1-yl-propionamide] was tested. Which Ki did it give?
The Ki was 3 nM.

With `CC(C)CN([C@H](CO)CCCCNC(=O)[C@@H](N)Cc1ccc2ccccc2c1)S(=O)(=O)c1ccc(N)cc1` [Example 49, (2S,5S)-2-Amino-N-{5-[(4-amino-benzenesulfonyl)-isobutyl-amino]-6-hydroxy-hexyl}-3-naphthalen-2-yl-propionamide] as the compound, how does the Ki read?
The Ki was 1.3 nM.

Which Ki does the source give for `COC(=O)N[C@@H](Cc1ccc2ccccc2c1)C(=O)NCCCC[C@@H](CO)N(CC(C)C)S(=O)(=O)c1ccc(N)cc1` [Example 29, (1S,5S)-(1-{5-[(4-Amino-benzenesulfonyl)-isobutyl-amino]-6-hydroxy-hexylcarbamoyl}-2-naphthalen-2-yl-ethyl)-carbamic Acid Methyl Ester] here?
The Ki was 1.2 nM.

For `CC(C)CN([C@H](CO)CCCCNC(=O)[C@@H](NC(=O)c1cnccn1)C(c1ccccc1)c1ccccc1)S(=O)(=O)c1ccc(N)cc1` [Example 97, (1S,5S)-Pyrazine-2-carboxylic Acid (1-{5-[(4-Amino-benzenesulfonyl)-isobutyl-amino]-6-hydroxy-hexylcarbamoyl}-2,2-diphenyl-ethyl)-amide], which Ki is on record?
The Ki was less than 3.8 nM.

For `COc1cc(C(=O)N[C@H](C(=O)NCCCC[C@@H](CO)N(CC(C)C)S(=O)(=O)c2ccc(N)cc2)C(c2ccccc2)c2ccccc2)ccc1O` [Example 106, (1S,5S)-N-(1-{5-[(4-Amino-benzenesulfonyl)-isobutyl-amino]-6-hydroxy-hexylcarbamoyl}-2,2-diphenyl-ethyl)-4-hydroxy-3-methoxy-benzamide], which Ki is on record?
The Ki was less than 3.8 nM.

`CC(C)CN([C@H](CO)CCCCNC(=O)[C@H](Cc1ccc2ccccc2c1)NCC(C)(C)C)S(=O)(=O)c1ccc(N)cc1` [Example 69, (2S,5S)-N-{5-[(4-Amino-benzenesulfonyl)-isobutyl-amino]-6-hydroxy-hexyl}-2-(2,2-dimethyl-propylamino)-3-naphthalen-2-yl-propionamide] was tested. Which Ki did it give?
Its Ki is 22 nM.

For `CC(C)CN([C@H](CO)CCCCNC(=O)[C@H](Cc1ccc2ccccc2c1)NC(=O)N1CCCC1)S(=O)(=O)c1ccc(F)c(N)c1` [Example 115, (1S,5S)Pyrrolidine-1-carboxylic Acid (1-{5-[(3-Amino-4-fluoro-benzenesulfonyl)-isobutyl-amino]-6-hydroxy-hexylcarbamoyl}-2-naphthalen-2-yl-ethyl)-amide], which Ki is on record?
Its Ki is less than 3.8 nM.

How did the Ki turn out when `CC(C)CN([C@H](CO)CCCCNC(=O)[C@@H](NC(=O)Cc1cccnc1)C(c1ccccc1)c1ccccc1)S(=O)(=O)c1ccc(N)cc1` [Example 99, (2S,5S)-N-{5-[(4-Amino-benzenesulfonyl)-isobutyl-amino]-6-hydroxy-hexyl}-3,3-diphenyl-2-(2-pyridin-3-yl-acetylamino)-propionamide] was run?
The Ki was less than 3.8 nM.

How did the Ki turn out when `CC(C)CN([C@H](CO)CCCCNC(=O)[C@@H](NC(=O)c1ccc(O)cc1)C(c1ccccc1)c1ccccc1)S(=O)(=O)c1ccc(N)cc1` [Example 102, (1S,5S)-N-(1-{5-[(4-Amino-benzenesulfonyl)-isobutyl-amino]-6-hydroxy-hexylcarbamoyl}-2,2-diphenyl-ethyl)-4-hydroxy-benzamide] was run?
Its Ki is less than 3.8 nM.

How did the Ki turn out when `COCCOC(=O)N[C@@H](Cc1cccc2ccccc12)C(=O)NCCC[C@@H](CO)N(CC(C)C)S(=O)(=O)c1ccc(N)cc1` [Example 17, (1S,4S)-(1-{4-[(4-Amino-benzenesulfonyl)-isobutyl-amino]-5-hydroxy-pentylcarbamoyl}-2-naphthalen-1-yl-ethyl)-carbamic Acid 2-Methoxy-ethyl Ester] was run?
Its Ki is 3.7 nM.

For `CC(C)CN([C@H](CO)CCCNC(=O)[C@H](Cc1cccc2ccccc12)NC(=O)OCC(F)(F)F)S(=O)(=O)c1ccc(N)cc1` [Example 7, (1S,4S)-(1-{4-[(4-Amino-benzenesulfonyl)-isobutyl-amino]-5-hydroxy-pentylcarbamoyl}-2-naphthalen-1-yl-ethyl)-carbamic Acid 2,2,2-Trifluoro-ethyl Ester], which Ki is on record?
Its Ki is 4 nM.

How did the Ki turn out when `COC(=O)N[C@@H](Cc1ccc2ccccc2c1)C(=O)NCCCC[C@@H](CO)N(CC(C)C)S(=O)(=O)c1ccc(N)c(F)c1` [Example 116, (1S,5S) (1-{5-[(4-Amino-3-fluoro-benzenesulfonyl)-isobutyl-amino]-6-hydroxy-hexylcarbamoyl}-2-naphthalen-2-yl-ethyl)-carbamic Acid Methyl Ester] was run?
The Ki was less than 3.8 nM.

`CC(C)CN([C@H](CO)CCCCNC(=O)[C@@H](NC(=O)OCc1ccncc1)C(c1ccccc1)c1ccccc1)S(=O)(=O)c1ccc(N)cc1` [Example 101, (1S,5S)-(1-{5-[(4-Amino-benzenesulfonyl)-isobutyl-amino]-6-hydroxy-hexylcarbamoyl}-2,2-diphenyl-ethyl)-carbamic Acid Pyridin-4-ylmethyl Ester] was tested. Which Ki did it give?
Its Ki is less than 3.8 nM.

How did the Ki turn out when `CC(=O)OCCN[C@@H](Cc1cccc2ccccc12)C(=O)NCCC[C@@H](CO)N(CC(C)C)S(=O)(=O)c1ccc(N)cc1` [Example 21, (1S,4S)-Acetic Acid 2-(1-{4-[(4-Amino-benzenesulfonyl)-isobutyl-amino]-5-hydroxy-pentylcarbamoyl}-2-naphthalen-1-yl-ethylamino)-ethyl Ester] was run?
Its Ki is 3.9 nM.

For `CC(C)CN([C@H](CO)CCCCNC(=O)[C@H](Cc1ccc(-c2ccccc2)cc1)NC(=O)OC(C)(C)C)S(=O)(=O)c1ccc(N)cc1` [Example 59, (1S,5S)-(1-{5-[(4-Amino-benzenesulfonyl)-isobutyl-amino]-6-hydroxy-hexylcarbamoyl}-2-biphenyl-4-yl-ethyl)-carbamic Acid tert-Butyl Ester], which Ki is on record?
Its Ki is 6 nM.

`CC(C)CN([C@H](CO)CCCCNC(=O)[C@@H](NC(=O)c1ncccc1O)C(c1ccccc1)c1ccccc1)S(=O)(=O)c1ccc(N)cc1` [Example 108, (1S,5S)-3-Hydroxy-pyridine-2-carboxylic Acid-N-(1-{5-[(4-amino-benzenesulfonyl)-isobutyl-amino]-6-hydroxy-hexylcarbamoyl}-2,2-diphenyl-ethyl)-amide] was tested. Which Ki did it give?
Its Ki is less than 3.8 nM.

With `CC(C)CN([C@H](CO)CCCCNC(=O)[C@@H](NC(=O)N(C)C)C(c1ccccc1)c1ccccc1)S(=O)(=O)c1ccc(N)cc1` [Example 94, (2S,5S)-N-{5-[(4-Amino-benzenesulfonyl)-isobutyl-amino]-6-hydroxy-hexyl}-2-(3,3-dimethyl-ureido)-3,3-diphenyl-propionamide] as the compound, how does the Ki read?
The Ki was less than 3.8 nM.
